The text below walks through data of patent US8299048B2, “Hexahydrocyclopentyl[f]indazole sulfonamides and derivatives thereof as selective glucocorticoid receptor modulators” (Merck Sharp & Dohme Corp., priority 2008, dated 2012).

For test [1], the target named is T1, human GR (Homo sapiens, UniProt P04150).
T1 sequence (P04150 1-777): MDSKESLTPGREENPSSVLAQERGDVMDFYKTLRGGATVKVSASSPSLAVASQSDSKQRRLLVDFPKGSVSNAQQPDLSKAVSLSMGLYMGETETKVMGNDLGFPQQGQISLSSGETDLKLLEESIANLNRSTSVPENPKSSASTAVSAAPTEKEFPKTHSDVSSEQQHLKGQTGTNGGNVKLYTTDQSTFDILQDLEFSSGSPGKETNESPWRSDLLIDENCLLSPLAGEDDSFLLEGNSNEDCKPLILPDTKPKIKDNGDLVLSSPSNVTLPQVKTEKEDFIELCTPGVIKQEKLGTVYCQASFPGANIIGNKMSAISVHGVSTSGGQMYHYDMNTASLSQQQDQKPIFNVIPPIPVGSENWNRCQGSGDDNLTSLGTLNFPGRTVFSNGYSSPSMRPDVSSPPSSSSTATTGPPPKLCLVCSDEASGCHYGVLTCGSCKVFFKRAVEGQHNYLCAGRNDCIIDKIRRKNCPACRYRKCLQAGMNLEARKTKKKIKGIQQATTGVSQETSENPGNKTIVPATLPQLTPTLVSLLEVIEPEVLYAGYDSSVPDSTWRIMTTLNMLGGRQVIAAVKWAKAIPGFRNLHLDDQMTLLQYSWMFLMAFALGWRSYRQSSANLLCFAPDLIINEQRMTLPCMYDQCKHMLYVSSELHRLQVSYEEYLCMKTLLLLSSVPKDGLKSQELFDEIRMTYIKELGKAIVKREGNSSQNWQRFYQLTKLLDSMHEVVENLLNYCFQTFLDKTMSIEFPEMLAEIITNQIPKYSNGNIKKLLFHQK
As to the kind of experiment: Trans-Activation Modulation of Glucocorticoid Receptor (GRAMMER), MMTV-LUC reporter, agonist mode. The class given is cell-based. Further details: endogenous in cells. As to conditions: for Emax: A549, A549 cells, maximum activity, read-out: Transactivation A549 Cells GRAMMER Emax; for EC50: A549 cells, inflection point, read-out: Transactivation A549 Cells GRAMMER IP. The essentials: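 Readout is luciferase from a modified MMTV LTR promoter after 24 h compound exposure alongside 10 nM dexamethasone (100% activity reference), DMSO ≤1%.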

The target in test [2] is T1, human GR. Briefly: Transrepression Assay (GITAR), TNFα-β-lactamase reporter in U937 cells. Format: cell-based. As to conditions: for GITAR > GRAMM % SEP: GITAR Emax minus GRAMMER Emax; for EC50: U937 cells, inflection point, read-out: Transrepression U937 Cells GITAR IP. Further details: U937 cells contain an endogenous glucocorticoid receptor (GR); endogenous in cells; host or cells: U937 cells stably transfected with the TNF-alpha promoter/beta-lactamase reporter. The essentials:
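Stable TNF-α-promoter/β-lactamase U937 line, endogenous GR; 50,000 cells/well. Cmpd 30–45 min 37 °C → PMA 5 ng/ml + LPS 100 ng/ml final, 37 °C ~18 hr → CCF2-AM 70–90 min RT. 100 nM dex = 100%.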

Where [3] appears, read: U-937, U937 cells, maximum activity, read-out: Transrepression U937 Cells GITAR Emax.
Where [4] appears, read: U-937, activity repressed by 100 nM dexamethasone alone set as 100%, read-out: maximal activity in the transrepression (GITAR) assay.

Regarding `C[C@]12Cc3cnn(-c4ccc(F)cc4)c3C=C1CC[C@@H]2CN(CC#N)S(=O)(=O)c1ccccc1-c1ccccc1` [Example 53, N-(cyanomethyl)-N-{[(4αR,5S)-1-(4-fluorophenyl)-4α-methyl-1,4,4α,5,6,7-hexahydrocyclopenta[f]indazol-5-yl]methyl}biphenyl-2-sulfonamide], the Emax at human GR [1] is 18.1%; on human GR [2] (setting [3]) it was 54%; on human GR [2] (setting [4]), above 5%. Also, the results for the EC50 at human GR [1] and on human GR [2] were 866 nM and 832 nM, respectively. In addition, the “GITAR > GRAMM % SEP” value at human GR [2] was found to be 36.0%.

Regarding `C[C@]12Cc3cnn(-c4ccc(F)cc4)c3C=C1CC[C@@H]2CN(CC#N)S(=O)(=O)c1ccccc1C(F)(F)F` [Example 54, N-(cyanomethyl)-N-{[(4αR,5S)-1-(4-fluorophenyl)-4α-methyl-1,4,4α,5,6,7-hexahydrocyclopenta[f]indazol-5-yl]methyl}-2-(trifluoromethyl)benzenesulfonamide], the Emax at human GR [1] is 8.2%; on human GR [2] (setting [3]), 31.3%; at human GR [2] (setting [4]), above 5%. The results for the EC50 on human GR [1] and at human GR [2] were 1080 nM and 1100 nM, respectively. Further, the “GITAR > GRAMM % SEP” value on human GR [2] came to 23.1%.

Take `C[C@]12Cc3cnn(-c4ccc(F)cc4)c3C=C1CC[C@@H]2CN(CC#N)S(=O)(=O)c1ccccc1C#N` [Example 55]: the Emax on human GR [1] is 47.7%; at human GR [2] (setting [3]), 83.4%; at human GR [2] (setting [4]) it was above 5%. Further, the results for the EC50 on human GR [1] and on human GR [2] were 549 nM and 337 nM, respectively. Besides, the “GITAR > GRAMM % SEP” value at human GR [2] is recorded as 35.7%.

Consider `Cc1oncc1S(=O)(=O)N(CCO)C[C@H]1CCC2=Cc3c(cnn3-c3ccc(F)cc3)C[C@@]21C` [Example 56, N-{[(4αR,5S)-1-(4-fluorophenyl)-4α-methyl-1,4,4α,5,6,7-hexahydrocyclopenta[f]indazol-5-yl]methyl}-N-(2-hydroxyethyl)-5-methylisoxazole-4-sulfonamide], for which the Emax at human GR [1] was 50.9%; on human GR [2] (setting [3]), 86.9%; on human GR [2] (setting [4]), above 5%. In addition, the figures for the EC50 on human GR [1] and at human GR [2] were 805 nM and 643 nM, respectively. The “GITAR > GRAMM % SEP” value at human GR [2] amounted to 36.1%.

Regarding `C[C@]12Cc3cnn(-c4ccc(F)cc4)c3C=C1CC[C@@H]2CN(CCO)S(=O)(=O)c1cc(Cl)c(Cl)s1` [Example 58, 4,5-dichloro-N-{[(4αR,5S)-1-(4-fluorophenyl)-4α-methyl-1,4,4α,5,6,7-hexahydrocyclopenta[f]indazol-5-yl]methyl}-N-(2-hydroxyethyl)thiophene-2-sulfonamide], the Emax at human GR [1] was 3.1%; on human GR [2] (setting [3]) it was 28.8%; on human GR [2] (setting [4]), above 5%. The EC50 on human GR [1] was found to be 1080 nM; at human GR [2], 737 nM. Moreover, on human GR [2], the “GITAR > GRAMM % SEP” value amounted to 25.7%.

As to `C[C@]12Cc3cnn(-c4ccc(F)cc4)c3C=C1CC[C@@H]2CN(CCO)S(=O)(=O)c1ccc(F)c(F)c1` [Example 59], the Emax at human GR [1] is 41.3%; on human GR [2] (setting [3]) it was 80.9%; on human GR [2] (setting [4]), above 5%. The results for the EC50 on human GR [1] and on human GR [2] were 437 nM and 538 nM, respectively. Besides, at human GR [2], the “GITAR > GRAMM % SEP” value is on record as 39.6%.

For `C[C@]12Cc3cnn(-c4ccc(F)cc4)c3C=C1CC[C@@H]2CN(CCO)S(=O)(=O)c1ccc(C#N)cc1Cl` [Example 60, 2-chloro-4-cyano-N-{[(4αR,5S)-1-(4-fluorophenyl)-4α-methyl-1,4,4α,5,6,7-hexahydrocyclopenta[f]indazol-5-yl]methyl}-N-(2-hydroxyethyl)benezenesulfonamide], the values for the Emax at human GR [1], at human GR [2] (setting [3]) and at human GR [2] (setting [4]) were 23%, 52% and above 5%, respectively. For the same molecule, the EC50 on human GR [1] was determined as 777 nM; at human GR [2] it was 813 nM. Also, the “GITAR > GRAMM % SEP” value on human GR [2] was determined as 29.0%.

For `C[C@]12Cc3cnn(-c4ccc(F)cc4)c3C=C1CC[C@@H]2CN(CCO)S(=O)(=O)c1cccc(Cl)c1Cl` [Example 61, 2,3-dichloro-N-{[(4αR,5S)-1-(4-fluorophenyl)-4α-methyl-1,4,4α,5,6,7-hexahydrocyclopenta[f]indazol-5-yl]methyl}-N-(2-hydroxyethyl)benezenesulfonamide], the values for the Emax on human GR [1], at human GR [2] (setting [3]) and on human GR [2] (setting [4]) were 5.8%, 31.3% and above 5%, respectively. The EC50 at human GR [1] is 417 nM; at human GR [2], 1550 nM. In addition, the “GITAR > GRAMM % SEP” value at human GR [2] turned out to be 25.5%.

`C[C@]12Cc3cnn(-c4ccc(F)cc4)c3C=C1CC[C@@H]2CNS(=O)(=O)Cc1cccnc1` [Example 169, N-{[(4αR,5S)-1-(4-fluorophenyl)-4α-methyl-1,4,4α,5,6,7-hexahydrocyclopenta[f]indazol-5-yl]methyl}-1-pyridin-3-ylmethanesulfonamide]: the values for the Emax on human GR [1], at human GR [2] (setting [3]) and at human GR [2] (setting [4]) were 12.4%, 68.5% and above 5%, respectively. The EC50 at human GR [1] amounted to 1660 nM; at human GR [2], 3030 nM. For the same molecule, on human GR [2], the “GITAR > GRAMM % SEP” value came out at 56.1%.

As for `Cc1noc(C)c1S(=O)(=O)N(CC1CCCO1)C[C@H]1CCC2=Cc3c(cnn3-c3ccc(F)cc3)C[C@@]21C` (stereo partly drawn) [Example 170, N-{[(4αR,5S)-1-(4-fluorophenyl)-4α-methyl-1,4,4α,5,6,7-hexahydrocyclopenta[f]indazol-5-yl]methyl}-3,5-dimethyl-N-(tetrahydrofuran-2-ylmethyl)isoxazole-4-sulfonamide], the Emax at human GR [1] is 76%; at human GR [2] (setting [3]) it was 87.7%; at human GR [2] (setting [4]), above 5%. The EC50 at human GR [1] came out at 432 nM; at human GR [2], 759 nM. Moreover, the “GITAR > GRAMM % SEP” value at human GR [2] was found to be 11.8%.

As to `CCS(=O)(=O)N(CCOC)C[C@H]1CCC2=Cc3c(cnn3-c3ccc(F)cc3)C[C@@]21C` [Example 171, N-{[(4αR,5S)-1-(4-fluorophenyl)-4α-methyl-1,4,4α,5,6,7-hexahydrocyclopenta[f]indazol-5-yl]methyl}-N-(2-methoxyethyl)ethanesulfonamide], the Emax on human GR [1] is 71.3%; on human GR [2] (setting [3]) it was 88%; at human GR [2] (setting [4]), above 5%. In addition, the values for the EC50 on human GR [1] and on human GR [2] were 287 nM and 410 nM, respectively. The “GITAR > GRAMM % SEP” value on human GR [2] stood at 16.7%.

Turning to `COCCN(C[C@H]1CCC2=Cc3c(cnn3-c3ccc(F)cc3)C[C@@]21C)S(=O)(=O)c1cn(C)nc1C(F)(F)F` [Example 172, N-{[(4αR,5S)-1-(4-fluorophenyl)-4α-methyl-1,4,4α,5,6,7-hexahydrocyclopenta[f]indazol-5-yl]methyl}-N-(2-methoxyethyl)-1-methyl-3-(trifluoromethyl)-1H-pyrazole-4-sulfonamide], the figures for the Emax on human GR [1], on human GR [2] (setting [3]) and on human GR [2] (setting [4]) were 10.7%, 42.4% and above 5%, respectively. In addition, the EC50 turned out to be 398 nM at human GR [1] and 718 nM on human GR [2]. The “GITAR > GRAMM % SEP” value at human GR [2] is 31.8%.

Consider `COCCN(C[C@H]1CCC2=Cc3c(cnn3-c3ccc(F)cc3)C[C@@]21C)S(=O)(=O)c1c(C)noc1C` [Example 173, N-{[(4αR,5S)-1-(4-fluorophenyl)-4α-methyl-1,4,4α,5,6,7-hexahydrocyclopenta[f]indazol-5-yl]methyl}-N-(2-methoxyethyl)-3,5-dimethylisoxazole-4-sulfonamide], for which the Emax was 70.4% on human GR [1], 83% at human GR [2] (setting [3]) and above 5% on human GR [2] (setting [4]). For the same molecule, the EC50 at human GR [1] was 364 nM; at human GR [2], 520 nM. In addition, the “GITAR > GRAMM % SEP” value on human GR [2] is listed as 12.6%.

For the molecule `CCS(=O)(=O)N(CC1CCCO1)C[C@H]1CCC2=Cc3c(cnn3-c3ccc(F)cc3)C[C@@]21C` (stereo partly drawn) [Example 174, N-{[(4αR,5S)-1-(4-fluorophenyl)-4α-methyl-1,4,4α,5,6,7-hexahydrocyclopenta[f]indazol-5-yl]methyl}-N-(tetrahydrofuran-2-ylmethyl)ethanesulfonamide], the Emax on human GR [1] is 81.1%; on human GR [2] (setting [3]) it was 85.3%; on human GR [2] (setting [4]), above 5%. The EC50 is 527 nM at human GR [1] and 423 nM at human GR [2]. Besides, the “GITAR > GRAMM % SEP” value at human GR [2] came out at 4.2%.
